In US20080226718A1, “Indole and Azaindole Derivatives For the Treatment of Inflammatory and Autoimmune Diseases” (Brane Discovery S.r.l, priority 2005, published 2008):
Where “and” joins values, the source holds several entries; their conditions need not be identical. Equal values may be shown once. Read-outs that look alike come from different tables or passages of the source.

Legend:
[1] = system: encephalitogenic lymphocytes; experiment: Spontaneous adhesion of encephalitogenic T cells on purified ICAM-1; type: cell-based, SJL mice; details: Mus musculus, Lymphocyte, 1 h
Outline: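 Autoreactive T cells came from SJL mice immunized with PLP139-151. Cells were pretreated for 1 h with compound at 5-100 μM or DMSO vehicle, then tested for spontaneous adhesion to purified ICAM-1 or VCAM-1. Inhibition is given as percent of vehicle control (100%), mean ± S.D. of three-four experiments.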

[2] = system: encephalitogenic lymphocytes; experiment: Chemokine-induced adhesion of murine encephalitogenic T cells to ICAM-1; type: cell-based, SJL mice; details: for Chemokine-induced Adhesion in encephalitogenic lymphocytes, Mean counts ± S.D., in presence of MIP3-β stimulation: 1 μM CCL19 (MIP-3beta); for Chemokine-induced Adhesion in encephalitogenic lymphocytes, Mean counts ± S.D., in presence of MIP3-β stimulation / Adhesion in encephalitogenic lymphocytes, Mean counts ± S.D., in absence of MIP3-β stimulation: ICAM-1
Outline: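 Murine PLP139-151-reactive T cells from immunized SJL mice were pretreated with compound (5-50 μM, 37° C., 30-60 min or 1 h), then stimulated with 1 μM CCL19 (2-3 min, static) on ICAM-1-coated glass. Bound cells counted after washing and fixation; values are mean counts ±S.D of three experiments.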

[3] = system: experimental autoimmune encephalomyelitis (EAE); experiment: EAE, preventive model; type: in vivo
Procedure: (§1) Female SJL/J mice, 6-8 weeks of age, were obtained from Harlan-Nossan Italy. Mice were immunized s.c. with 200 μg PLP139-151 in 0.1 ml emulsion consisting of equal volumes of PBS and CFA (Difco Laboratories, Detroit, Mich.) and containing 6 mg/ml of Mycobacterium tuberculosis H37Ra (Difco). To induce a severe disease, in some experiments 400 ng Pertussis toxin (PTX) was administered i.v. at days 0 and 2 (Constantin, G. et al. Eur. J. Immunol., 28, 3523-3529, 1998). Mice were scored for EAE according to the following scale: 0, no disease; 1, tail weakness; 2, paraparesis; 3, paraplegia; 4, paraplegia with forelimb weakness or paralysis; 5, moribund or dead animals (Brocke S. et al., Autoimmune disease models. Academic Press, San Diego, 1-4, 1994).
Test compound was administered daily at 60 mg/kg i.p. for 17 days starting from the day of immunization. Control animals received vehicle (DMSO).
(§2) The effects of compound of Example 1 (PCT/EP2005/051908) were determined on EAE (experimental autoimmune encephalomyelitis), the animal model of multiple sclerosis (Tables 4 and 5). SJL mice were immunized with PLP139-151 peptide from cerebral proteolipid. The disease model has relapses and remission periods, as described in relapsing-remitting MS, the most frequent form of human disease accounting for 85% of all MS patients.
In the preventive model (Table 4), mice received 60 mg/kg daily of Compound of Example 1 (PCT/EP2005/051908), intraperitoneally, for 17 days starting from the day of immunization. Control animals received vehicle (DMSO). Control animals developed disease with a mean day of onset of 13±1.5. Mean maximum clinical score in control animals was 2.7±0.3. All control mice that developed disease also presented clinical relapses.

[4] = system: experimental autoimmune encephalomyelitis (EAE); type: in vivo; details: therapeutic
Procedure: as §1, §2
In the therapeutic model (Table 5), mice received 70 mg/kg of Compound of Example 1 (PCT/EP2005/051908), daily, intraperitoneally, for 11 days starting from the day of clinical onset. The treated mice also received 4 doses intravenously (i.v.) of 10 mg/kg each. Control animals received vehicle (DMSO). Control animals developed disease with a mean day of onset of 13.8±3, while treated mice developed EAE at 13.5±2 days postimmunization. Mean (±S.E.M.) maximum clinical score in control animals was 1.75±0.6.

[5] = preventive, 60 mg/kg i.p. daily for 17 days from immunization

Structure (SMILES): COC(=O)c1[nH]c2cc(OC)c(OC)cc2c1-c1ccc(OC)cc1 [Example 1]
- inhibition at 5 µM ([1]; [cpd] 5 μM, read-out: Inhibition of Spontaneous Adhesion in encephalitogenic lymphocytes (% of control/non-treated cells) ICAM-1): 47%
- inhibition at 10 µM ([1]; [cpd] 10 μM, read-out: Inhibition of Spontaneous Adhesion in encephalitogenic lymphocytes (% of control/non-treated cells) ICAM-1 (converted)): 65%
- inhibition at 25 µM ([1]; [cpd] 25 μM, read-out: Inhibition of Spontaneous Adhesion in encephalitogenic lymphocytes (% of control/non-treated cells) ICAM-1 (converted)): 70%
- inhibition at 50 µM ([1]; [cpd] 50 μM, read-out: Inhibition of Spontaneous Adhesion in encephalitogenic lymphocytes (% of control/non-treated cells) ICAM-1 (converted)): 89%
- inhibition at 100 µM ([1]; [cpd] 100 μM, read-out: Inhibition of Spontaneous Adhesion in encephalitogenic lymphocytes (% of control/non-treated cells) ICAM-1 (converted)): 96%
- Block of chemokine-induced autoreactive lymphocyte adhesion, in words ([2]; 5-50 μM for 1 h, 1 μM CCL19): almost complete block
- Chemokine-induced Adhesion in encephalitogenic lymphocytes, Mean counts ± S.D., in presence of MIP3-β stimulation ([2]; [cpd] 5 μM): 10.3 ± 1.0
- Adhesion in encephalitogenic lymphocytes, Mean counts ± S.D., in absence of MIP3-β stimulation ([2]; [cpd] 5 μM): 1.3 ± 1.0
- Chemokine-induced Adhesion in encephalitogenic lymphocytes, Mean counts ± S.D., in presence of MIP3-β stimulation ([2]; [cpd] 10 μM): 7.0 ± 1.0
- Adhesion in encephalitogenic lymphocytes, Mean counts ± S.D., in absence of MIP3-β stimulation ([2]; [cpd] 10 μM): 1.0 ± 1.0
- Chemokine-induced Adhesion in encephalitogenic lymphocytes, Mean counts ± S.D., in presence of MIP3-β stimulation ([2]; [cpd] 25 μM): 5.3 ± 2.0
- Adhesion in encephalitogenic lymphocytes, Mean counts ± S.D., in absence of MIP3-β stimulation ([2]; [cpd] 25 μM): 0.4 ± 0.2
- Chemokine-induced Adhesion in encephalitogenic lymphocytes, Mean counts ± S.D., in presence of MIP3-β stimulation ([2]; [cpd] 50 μM): 3.2 ± 1.0
- Adhesion in encephalitogenic lymphocytes, Mean counts ± S.D., in absence of MIP3-β stimulation ([2]; [cpd] 50 μM): 0.4 ± 0.1
- Visible toxicity (appearance of animals, macroscopic pathological analysis) ([3]; 60 mg/kg i.p. daily for 17 days): neither the treatment caused any visible toxicity
- Development of clinical signs of disease, in words ([3]; preventive, 60 mg/kg i.p. daily for 17 days): completely blocked
- Disease incidence [3, 5]: 0/6
- Mortality [3, 5]: 0/6
- Mean maximum clinical score ([3]; preventive, 60 mg/kg i.p. daily for 17 days from immunization, scale 0-5): 0
- Clinical relapses ([3]; preventive, observation period of 61 days): no treated animals developed clinical relapses
- Mortality ([4]; 70 mg/kg i.p. daily for 11 days from clinical onset plus 4 i.v. doses of 10 mg/kg): 0/6
- Mean maximum clinical score ([4]; 70 mg/kg i.p. daily for 11 days from clinical onset plus 4 i.v. doses of 10 mg/kg, scale 0-5, ±S.E.M.): 0.89 ± 0.23
- Inhibition of mean maximum clinical score ([4]; P<0.01): 50%
- Mean day of onset ([4]; treatment started at clinical onset): 13.5±2 days postimmunization and 13.5 ± 2.0 days postimmunization
